Source: PMC6576746, “Rational discovery of dual-indication multi-target PDE/Kinase inhibitor for precision anti-cancer therapy using structural systems pharmacology” (PLoS Computational Biology, 2019)

How the values were obtained:
Assay in all cases: biochemical
Parameters in all cases: DiscoverX KinomeScan competition binding assay across human kinases; per cent of control at 10 and 100 uM
[1] = target: RET(V804M) (Homo sapiens, UniProt P07949, V804M); settings: competition binding, % of control; read-out: Percent Control (100 uM Levosimendan)
Sequence of RET(V804M) (P07949 whole entry V804M): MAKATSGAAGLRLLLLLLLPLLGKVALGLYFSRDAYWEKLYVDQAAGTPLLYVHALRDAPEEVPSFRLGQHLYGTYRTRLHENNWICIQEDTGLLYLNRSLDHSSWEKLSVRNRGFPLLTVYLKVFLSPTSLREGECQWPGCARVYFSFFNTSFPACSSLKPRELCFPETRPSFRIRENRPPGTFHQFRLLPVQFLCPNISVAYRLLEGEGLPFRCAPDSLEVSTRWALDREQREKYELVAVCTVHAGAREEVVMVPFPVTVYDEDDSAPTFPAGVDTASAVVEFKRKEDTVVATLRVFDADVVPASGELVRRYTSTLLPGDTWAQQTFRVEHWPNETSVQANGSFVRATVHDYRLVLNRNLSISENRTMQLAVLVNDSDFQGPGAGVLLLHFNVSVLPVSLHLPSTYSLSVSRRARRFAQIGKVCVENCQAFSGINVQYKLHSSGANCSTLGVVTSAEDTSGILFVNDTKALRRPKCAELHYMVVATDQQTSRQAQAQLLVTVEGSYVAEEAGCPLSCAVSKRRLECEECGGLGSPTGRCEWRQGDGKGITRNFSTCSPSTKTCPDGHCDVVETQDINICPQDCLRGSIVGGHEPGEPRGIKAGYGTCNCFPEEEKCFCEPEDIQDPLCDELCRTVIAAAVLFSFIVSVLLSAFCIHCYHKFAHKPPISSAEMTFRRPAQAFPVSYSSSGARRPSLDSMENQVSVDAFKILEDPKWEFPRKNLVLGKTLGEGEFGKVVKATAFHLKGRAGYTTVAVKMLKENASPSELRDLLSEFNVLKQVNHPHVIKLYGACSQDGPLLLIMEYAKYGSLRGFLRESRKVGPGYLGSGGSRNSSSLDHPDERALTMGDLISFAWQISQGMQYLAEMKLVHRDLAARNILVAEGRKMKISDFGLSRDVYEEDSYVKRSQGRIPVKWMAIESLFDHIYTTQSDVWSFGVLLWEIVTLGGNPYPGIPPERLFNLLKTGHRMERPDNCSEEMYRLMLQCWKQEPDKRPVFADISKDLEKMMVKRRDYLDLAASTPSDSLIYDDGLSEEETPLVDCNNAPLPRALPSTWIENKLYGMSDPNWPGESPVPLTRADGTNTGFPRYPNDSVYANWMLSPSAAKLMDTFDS
Method in brief: (§1)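 KinomeScan competition binding was run across a human kinase panel at 10 μM and 100 μM levosimendan. Results are %control = (test − positive control)/(negative control − positive control) × 100.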

[2] = target: CDK7 (Homo sapiens, UniProt P50613); settings: competition binding, % of control; read-out: Percent Control (100 uM Levosimendan)
Method in brief: as §1

[3] = target: PRKD3 (Homo sapiens, UniProt O94806); settings: competition binding, % of control; read-out: Percent Control (100 uM Levosimendan)
Method in brief: as §1

[4] = target: T1, MEK1 (Homo sapiens, UniProt Q02750); settings: competition binding, % of control; read-out: Percent Control (100 uM Levosimendan)
T1 construct: gene MAP2K1
T1 sequence (Q02750 whole entry): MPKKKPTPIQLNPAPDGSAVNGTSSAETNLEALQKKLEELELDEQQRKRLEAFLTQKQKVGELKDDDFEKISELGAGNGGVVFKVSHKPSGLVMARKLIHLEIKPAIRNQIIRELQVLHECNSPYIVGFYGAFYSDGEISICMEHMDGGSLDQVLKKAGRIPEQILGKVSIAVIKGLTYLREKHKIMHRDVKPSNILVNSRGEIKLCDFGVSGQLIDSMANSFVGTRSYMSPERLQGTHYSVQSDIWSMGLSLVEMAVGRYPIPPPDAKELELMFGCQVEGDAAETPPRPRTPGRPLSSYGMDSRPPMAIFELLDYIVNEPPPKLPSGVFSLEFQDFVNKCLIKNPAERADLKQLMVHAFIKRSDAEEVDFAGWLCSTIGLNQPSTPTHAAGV
Method in brief: as §1

[5] = target: FGFR3 (Homo sapiens, UniProt P22607); settings: competition binding, % of control; read-out: Percent Control (100 uM Levosimendan)
Method in brief: as §1

[6] = target: T2, DLK (Homo sapiens, UniProt Q12852); settings: competition binding, % of control; read-out: Percent Control (100 uM Levosimendan)
T2 construct: gene MAP3K12
Method in brief: as §1

[7] = target: BMPR1B (Homo sapiens, UniProt O00238); settings: competition binding, % of control
Sequence of BMPR1B (O00238 whole entry): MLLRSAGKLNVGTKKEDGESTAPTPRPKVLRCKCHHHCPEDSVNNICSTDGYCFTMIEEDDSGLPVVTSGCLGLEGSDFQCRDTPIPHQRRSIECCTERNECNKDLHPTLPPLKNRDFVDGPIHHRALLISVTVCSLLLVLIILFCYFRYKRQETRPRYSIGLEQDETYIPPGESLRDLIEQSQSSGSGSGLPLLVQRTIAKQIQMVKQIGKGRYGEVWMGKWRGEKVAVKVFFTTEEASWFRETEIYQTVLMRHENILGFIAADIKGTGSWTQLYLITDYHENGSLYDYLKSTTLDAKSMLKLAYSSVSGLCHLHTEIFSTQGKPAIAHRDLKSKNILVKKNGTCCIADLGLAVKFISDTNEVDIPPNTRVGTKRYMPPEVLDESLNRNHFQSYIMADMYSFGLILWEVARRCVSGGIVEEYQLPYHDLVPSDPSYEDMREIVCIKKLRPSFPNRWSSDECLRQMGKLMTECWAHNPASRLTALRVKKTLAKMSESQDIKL
Method in brief: as §1

[8] = target: T3, YES (Homo sapiens, UniProt P07947); settings: competition binding, % of control
T3 construct: gene YES1
T3 sequence (P07947 whole entry): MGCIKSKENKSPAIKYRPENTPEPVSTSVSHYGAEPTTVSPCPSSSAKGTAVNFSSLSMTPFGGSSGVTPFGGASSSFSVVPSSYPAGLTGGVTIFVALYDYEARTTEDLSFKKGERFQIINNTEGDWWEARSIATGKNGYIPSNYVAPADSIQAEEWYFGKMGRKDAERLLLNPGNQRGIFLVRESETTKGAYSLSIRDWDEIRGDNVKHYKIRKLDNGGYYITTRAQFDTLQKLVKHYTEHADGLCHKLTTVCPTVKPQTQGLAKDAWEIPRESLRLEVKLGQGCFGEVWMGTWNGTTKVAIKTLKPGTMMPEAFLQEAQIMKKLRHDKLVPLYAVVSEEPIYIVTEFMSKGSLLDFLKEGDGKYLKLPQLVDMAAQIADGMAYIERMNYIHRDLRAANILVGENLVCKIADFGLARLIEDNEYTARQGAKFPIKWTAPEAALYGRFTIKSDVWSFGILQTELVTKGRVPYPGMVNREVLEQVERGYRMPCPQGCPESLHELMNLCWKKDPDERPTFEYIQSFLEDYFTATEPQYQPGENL
Method in brief: as §1

[9] = target: T4, DCAMKL1 (Homo sapiens, UniProt O15075); settings: competition binding, % of control; read-out: Percent Control (100 uM Levosimendan)
T4 construct: gene DCLK1
Method in brief: as §1

[10] = target: CLK1 (Homo sapiens, UniProt P49759); settings: competition binding, % of control; read-out: Percent Control (100 uM Levosimendan)
Sequence of CLK1 (P49759 whole entry): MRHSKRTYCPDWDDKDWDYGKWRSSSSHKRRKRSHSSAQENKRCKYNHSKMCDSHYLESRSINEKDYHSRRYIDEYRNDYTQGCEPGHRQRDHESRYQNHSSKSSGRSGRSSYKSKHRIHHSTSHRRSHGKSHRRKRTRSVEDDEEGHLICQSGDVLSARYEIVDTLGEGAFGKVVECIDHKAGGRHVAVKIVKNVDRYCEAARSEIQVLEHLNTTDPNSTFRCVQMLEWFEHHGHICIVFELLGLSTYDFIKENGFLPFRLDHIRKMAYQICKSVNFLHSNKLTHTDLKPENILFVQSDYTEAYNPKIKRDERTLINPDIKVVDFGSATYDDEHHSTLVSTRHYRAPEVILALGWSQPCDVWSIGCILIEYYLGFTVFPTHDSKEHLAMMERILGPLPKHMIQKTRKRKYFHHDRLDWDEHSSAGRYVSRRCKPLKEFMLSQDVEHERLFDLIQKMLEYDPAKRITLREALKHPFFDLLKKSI
Method in brief: as §1

[11] = target: EGFR(L858R) (Homo sapiens, UniProt P00533, L858R); settings: competition binding, % of control; read-out: Percent Control (100 uM Levosimendan)
Sequence of EGFR(L858R) (P00533 whole entry L858R): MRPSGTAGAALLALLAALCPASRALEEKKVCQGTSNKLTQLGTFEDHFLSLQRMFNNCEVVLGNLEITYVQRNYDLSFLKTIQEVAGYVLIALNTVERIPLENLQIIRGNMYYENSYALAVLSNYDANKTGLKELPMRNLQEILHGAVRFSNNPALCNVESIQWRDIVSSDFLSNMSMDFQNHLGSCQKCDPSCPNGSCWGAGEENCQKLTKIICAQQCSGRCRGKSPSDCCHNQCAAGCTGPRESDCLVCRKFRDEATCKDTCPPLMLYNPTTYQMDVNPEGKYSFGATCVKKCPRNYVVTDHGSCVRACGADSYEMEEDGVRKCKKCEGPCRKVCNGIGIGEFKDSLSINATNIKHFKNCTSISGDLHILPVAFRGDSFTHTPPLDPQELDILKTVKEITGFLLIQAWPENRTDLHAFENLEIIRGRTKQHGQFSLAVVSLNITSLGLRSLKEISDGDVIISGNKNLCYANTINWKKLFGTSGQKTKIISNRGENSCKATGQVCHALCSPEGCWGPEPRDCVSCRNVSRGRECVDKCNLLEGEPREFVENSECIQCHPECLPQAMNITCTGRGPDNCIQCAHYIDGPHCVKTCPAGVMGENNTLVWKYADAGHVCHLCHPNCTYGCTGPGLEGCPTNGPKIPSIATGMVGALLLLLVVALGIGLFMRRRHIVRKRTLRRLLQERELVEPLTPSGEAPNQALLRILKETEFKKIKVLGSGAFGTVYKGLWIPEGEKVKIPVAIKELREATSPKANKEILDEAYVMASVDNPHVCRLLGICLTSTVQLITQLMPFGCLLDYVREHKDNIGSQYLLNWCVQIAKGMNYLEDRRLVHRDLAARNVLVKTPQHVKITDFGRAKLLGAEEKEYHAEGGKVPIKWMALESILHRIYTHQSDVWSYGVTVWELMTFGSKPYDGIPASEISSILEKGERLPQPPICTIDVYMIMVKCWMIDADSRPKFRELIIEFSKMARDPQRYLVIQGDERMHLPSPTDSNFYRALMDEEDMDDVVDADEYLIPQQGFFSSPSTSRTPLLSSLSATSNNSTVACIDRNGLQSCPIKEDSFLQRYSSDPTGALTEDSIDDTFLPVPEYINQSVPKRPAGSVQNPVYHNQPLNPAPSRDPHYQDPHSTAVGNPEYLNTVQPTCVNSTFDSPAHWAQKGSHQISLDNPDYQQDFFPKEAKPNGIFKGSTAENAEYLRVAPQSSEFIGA
Method in brief: as §1

[12] = target: PAK6 (Homo sapiens, UniProt Q9NQU5); settings: competition binding, % of control; read-out: Percent Control (100 uM Levosimendan)
Method in brief: as §1

[13] = target: IGF1R (Homo sapiens, UniProt P08069); settings: competition binding, % of control; read-out: Percent Control (100 uM Levosimendan)
Method in brief: as §1

[14] = target: PRKX (Homo sapiens, UniProt P51817); settings: competition binding, % of control; read-out: Percent Control (100 uM Levosimendan)
Method in brief: as §1

[15] = target: MERTK (Homo sapiens, UniProt Q12866); settings: competition binding, % of control; read-out: Percent Control (100 uM Levosimendan)
Method in brief: as §1

[16] = target: BTK (Homo sapiens, UniProt Q06187); settings: competition binding, % of control; read-out: Percent Control (100 uM Levosimendan)
Method in brief: as §1

[17] = target: T5, MLK1 (Homo sapiens, UniProt P80192); settings: competition binding, % of control; read-out: Percent Control (100 uM Levosimendan)
T5 construct: gene MAP3K9
Method in brief: as §1

[18] = target: CHEK1 (Homo sapiens, UniProt O14757); settings: competition binding, % of control; read-out: Percent Control (100 uM Levosimendan)
Method in brief: as §1

[19] = target: CLK3 (Homo sapiens, UniProt P49761); settings: competition binding, % of control; read-out: Percent Control (100 uM Levosimendan)
Sequence of CLK3 (P49761 whole entry): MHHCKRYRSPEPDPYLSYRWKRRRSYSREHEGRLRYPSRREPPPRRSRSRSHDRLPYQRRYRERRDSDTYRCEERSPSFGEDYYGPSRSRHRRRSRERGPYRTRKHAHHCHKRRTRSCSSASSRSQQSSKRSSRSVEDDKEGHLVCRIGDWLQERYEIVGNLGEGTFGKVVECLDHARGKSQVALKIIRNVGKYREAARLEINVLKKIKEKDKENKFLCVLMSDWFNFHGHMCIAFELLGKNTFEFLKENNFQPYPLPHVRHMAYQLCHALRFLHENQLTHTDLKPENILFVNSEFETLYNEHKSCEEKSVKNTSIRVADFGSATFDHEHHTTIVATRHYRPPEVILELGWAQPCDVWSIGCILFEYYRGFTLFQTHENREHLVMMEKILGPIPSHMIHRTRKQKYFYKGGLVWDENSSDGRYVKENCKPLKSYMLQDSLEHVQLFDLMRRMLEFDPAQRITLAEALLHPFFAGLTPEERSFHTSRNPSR
Method in brief: as §1

[20] = read-out: Percent Control (10 uM Levosimendan)
[21] = read-out: Percent Control (100 uM Levosimendan)

remaining binding at 100 µM [1]: 80% | remaining binding at 100 µM [2]: 100% | remaining binding at 100 µM [3]: 100% | remaining binding at 100 µM [4]: 85% | remaining binding at 100 µM [5]: 71% | remaining binding at 100 µM [6]: 62% | remaining binding at 10 µM [7, 20]: 82% | remaining binding at 100 µM [7, 21]: 36% | remaining binding at 10 µM [8, 20]: 97% | remaining binding at 100 µM [8, 21]: 0% | remaining binding at 100 µM [9]: 67% | remaining binding at 100 µM [10]: 89% | remaining binding at 100 µM [11]: 63% | remaining binding at 100 µM [12]: 70% | remaining binding at 100 µM [13]: 86% | remaining binding at 100 µM [14]: 76% | remaining binding at 100 µM [15]: 70% | remaining binding at 100 µM [16]: 100% | remaining binding at 100 µM [17]: 79% | remaining binding at 100 µM [18]: 85% | remaining binding at 100 µM [19]: 68%
SMILES: C[C@@H]1CC(=O)NN=C1c1ccc(NN=C(C#N)C#N)cc1 [levosimendan]
